Assay results taken from patent US10793591B2, “Substituted nucleosides, nucleotides and analogs thereof” (priority 2012, dated 2020).
Read-outs that look alike come from different tables or passages of the source.

How the values were obtained:
[1] = tested on: Huh-7 cells containing the self-replicating, subgenomic HCV replicon; experiment: HCV replicon assay (luciferase reporter); format: cell-based
[2] = tested on: HCV genotype 1b HCV replicon harbored in Huh7 cells; experiment: Combination testing in HCV replicon (MacSynergy II); format: cell-based; conditions: for Synergy Volume: combination with compound 18, 72 h, MacSynergy II, Bliss independence model; for Determination: combination with compound 18, class from synergy volume
[3] = molecular target: human mitochondrial RNA polymerase (Homo sapiens (Human), UniProt O00411); experiment: DdRp assay: incorporation of nucleotides by human mitochondrial RNA polymerase (HMRP); conditions: 100 μM NTP, single turnover, product band on gel
Chain of human mitochondrial RNA polymerase (O00411 42-1230): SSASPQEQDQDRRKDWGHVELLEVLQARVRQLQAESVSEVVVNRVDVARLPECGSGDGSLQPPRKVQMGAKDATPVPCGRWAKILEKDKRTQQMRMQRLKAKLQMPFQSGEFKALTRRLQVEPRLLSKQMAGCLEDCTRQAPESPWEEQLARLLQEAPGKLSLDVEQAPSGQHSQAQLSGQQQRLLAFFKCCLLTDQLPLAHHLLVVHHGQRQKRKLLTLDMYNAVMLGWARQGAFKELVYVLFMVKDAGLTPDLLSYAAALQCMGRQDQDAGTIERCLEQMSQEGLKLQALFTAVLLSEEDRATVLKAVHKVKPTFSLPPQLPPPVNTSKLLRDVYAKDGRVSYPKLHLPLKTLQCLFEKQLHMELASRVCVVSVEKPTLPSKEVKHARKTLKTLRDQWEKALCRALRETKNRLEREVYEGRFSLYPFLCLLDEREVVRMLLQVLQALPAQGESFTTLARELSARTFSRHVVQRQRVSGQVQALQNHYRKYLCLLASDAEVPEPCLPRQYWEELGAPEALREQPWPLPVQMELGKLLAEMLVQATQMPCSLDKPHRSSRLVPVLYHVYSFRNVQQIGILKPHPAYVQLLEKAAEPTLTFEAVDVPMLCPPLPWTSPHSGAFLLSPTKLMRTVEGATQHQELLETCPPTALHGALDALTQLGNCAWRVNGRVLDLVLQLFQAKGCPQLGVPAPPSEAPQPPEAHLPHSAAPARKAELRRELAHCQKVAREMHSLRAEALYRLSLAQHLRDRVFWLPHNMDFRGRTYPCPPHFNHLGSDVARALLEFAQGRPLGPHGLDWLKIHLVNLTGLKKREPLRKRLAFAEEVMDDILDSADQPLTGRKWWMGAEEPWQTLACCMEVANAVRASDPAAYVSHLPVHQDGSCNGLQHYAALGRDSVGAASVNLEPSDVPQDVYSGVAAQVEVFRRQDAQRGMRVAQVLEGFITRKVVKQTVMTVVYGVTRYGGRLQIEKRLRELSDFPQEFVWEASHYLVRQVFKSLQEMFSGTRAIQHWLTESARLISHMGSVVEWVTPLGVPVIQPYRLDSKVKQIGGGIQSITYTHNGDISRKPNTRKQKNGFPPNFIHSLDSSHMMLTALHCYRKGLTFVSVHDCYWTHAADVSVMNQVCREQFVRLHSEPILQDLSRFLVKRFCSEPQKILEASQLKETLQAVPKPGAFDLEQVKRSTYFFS

[4] = tested on: mitochondrial protein synthesis (COX-I relative to SDH-A) in HepG2 cells
[5] = Hepatitis C virus, Huh-7, HCV replicon cells, 72 h, Bright-Glo luciferase, read-out: EC50

SMILES	EC50 ([1]; Hepatitis C virus, Huh-7, 72 h) [nM]	further results
C#C[C@]1(O)[C@H](n2ccc(=O)[nH]c2=O)O[C@](F)(COP(=O)(N[C@@H](C)C(=O)OC2CCCCC2)Oc2ccccc2)[C@H]1O (stereo partly drawn) [Compound 22]	< 1000	–
CCOc1nc(N)nc2c1ncn2[C@@H]1O[C@]2(F)CO[P@](=O)(OC(C)C)O[C@H]2[C@@]1(C)F [Compound 42]	–	EC50 [1, 5]: < 1000 nM
CCC[C@H](NC(=O)[C@@H]1[C@H]2CCC[C@H]2CN1C(=O)[C@@H](NC(=O)[C@@H](NC(=O)c1cnccn1)C1CCCCC1)C(C)(C)C)C(=O)C(=O)NC1CC1 [VX-950 (1001)]	–	Synergy Volume [2]: 32.28 μM^2%; Determination [2]: Synergistic (volumes in the 25-100 range indicate synergistic behavior)
CC(C)OC(=O)C(C)N[P@@](=O)(OC[C@@]1(F)O[C@@H](n2ccc(=O)[nH]c2=O)[C@](C)(O)[C@@H]1O)Oc1ccccc1 (stereo partly drawn) [Compound 19]	< 1000	–
C[C@@]1(F)[C@H](O)[C@@H](COP(=O)(O)OP(=O)(O)OP(=O)(O)O)O[C@H]1n1ccc(=O)[nH]c1=O [2′-Me-2′-F-UTP]	–	incorporation by HMRP (template for UTP analogs, FIG. 10) [3]: not efficient substrates for incorporation by HMRP
CCOc1nc(N)nc2c1ncn2[C@@H]1O[C@]2(F)COP(=O)(OCC)O[C@H]2[C@@]1(C)F (stereo partly drawn) [Compound 79]	< 1000	–
CC(C)OC(=O)[C@H](C)NP(=O)(N[C@@H](C)C(=O)OC(C)C)OC[C@@]1(F)O[C@@H](n2ccc(=O)[nH]c2=O)[C@](C)(O)[C@@H]1O [Compound 70]	1000 to 10000	–
CCOc1nc(N)nc2c1ncn2C1O[C@](F)(COP(=O)(N[C@@H](C)C(=O)OC(C)C)Oc2cccc3ccccc23)[C@@H](O)[C@@]1(C)F (stereo partly drawn) [Compound 83]	< 1000	–
CCOc1nc(N)nc2c1ncn2C1O[C@](F)(COP(=O)(N[C@@H](C)C(=O)OCC(C)C)Oc2ccccc2)[C@@H](O)[C@@]1(C)F (stereo partly drawn) [Compound 86]	< 1000	–
C[C@H](NP(=O)(OC[C@@]1(F)O[C@@H](n2ccc(=O)[nH]c2=O)[C@](C)(O)[C@@H]1O)Oc1ccccc1)C(=O)OC1CCCCC1 (stereo partly drawn) [Compound 3]	< 1000	–
CC(C)OC(=O)[C@H](C)NP(=O)(OC[C@@]1(F)O[C@@H](n2ccc(=O)[nH]c2=O)[C@](C)(O)[C@@H]1O)Oc1cccc2ccccc12 (stereo partly drawn) [Compound 54]	< 1000	–
CC(C)OC(=O)[C@H](C)NP(=O)(OC[C@@]1(F)O[C@@H](n2ccc(=O)[nH]c2=O)[C@](C)(O)[C@@H]1O)Oc1ccccc1 (stereo partly drawn) [Compound 2]	< 1000	–
CNC(=O)c1c(-c2ccc(F)cc2)oc2cc(N(CCO)S(C)(=O)=O)c(C3CC3)cc12 [HCV-796 (3004)]	–	Synergy Volume [2]: 81.72 μM^2%; Determination [2]: Synergistic (volumes in the 25-100 range indicate synergistic behavior)
C#C[C@]1(O)[C@H](n2cnc3c(OCC)nc(N)nc32)O[C@](F)(CO[P@@](=O)(N[C@@H](C)C(=O)OC2CCCCC2)Oc2ccccc2)[C@H]1O [Compound 35]	–	EC50 ([1]; read-out: EC50): < 1000 nM
CC(N[P@@](=O)(OC[C@@]1(F)O[C@@H](n2ccc(=O)[nH]c2=O)[C@](C)(O)[C@@H]1O)Oc1ccccc1)C(=O)OC1CCCCC1 (stereo partly drawn) [Compound 21]	< 1000	–
NC(=O)c1ncn([C@@H]2O[C@H](CO)[C@@H](O)[C@H]2O)n1 [Ribavirin (5012), Ribavirin]	–	Synergy Volume [2]: 6.77 μM^2%; Determination [2]: Additive (volumes in the −25-25 range indicate additive behavior)
CC(=O)O[C@H]1[C@@](C)(O)[C@H](n2ccc(=O)[nH]c2=O)O[C@]1(F)COP(=O)(N[C@@H](C)C(=O)OC(C)C)Oc1ccc(Cl)cc1 (stereo partly drawn) [Compound 57]	< 1000	–
CCOc1nc(N)nc2c1ncn2[C@@H]1O[C@](F)(COP(=O)(N[C@@H](C)C(=O)OCC(C)(C)C)Oc2cccc3ncccc23)[C@@H](O)[C@@]1(C)F (stereo partly drawn) [Compound 89]	< 1000	–
CCOc1nc(N)nc2c1ncn2[C@@H]1O[C@](F)(COP(=O)(N[C@@H](C)C(=O)OC2CCCCC2)Oc2ccccc2)[C@@H](O)[C@@]1(C)F (stereo partly drawn) [Compound 66]	< 1000	–
Cc1cn([C@H]2C=C[C@@H](CO)O2)c(=O)[nH]c1=O [d4T]	–	inhibition of mitochondrial protein synthesis [4]: not to inhibit mitochondrial protein synthesis at concentrations up to 100 μM
CC(C)OC(=O)[C@H](C)NP(=O)(OC[C@@]1(F)O[C@@H](n2ccc(=O)[nH]c2=O)[C@](C)(O)[C@@H]1O)Oc1ccc(Cl)cc1 (stereo partly drawn) [Compound 56]	< 1000	–
CC(C)OC(=O)C(C)N[P@](=O)(OC[C@@]1(F)O[C@@H](n2ccc(=O)[nH]c2=O)[C@](C)(O)[C@@H]1O)Oc1ccccc1 (stereo partly drawn) [Compound 18]	< 1000	–
CCOc1nc(N)nc2c1ncn2[C@@H]1O[C@](F)(COP(=O)(N[C@@H](C)C(=O)OCC(C)(C)C)Oc2ccccc2)[C@@H](O)[C@@]1(C)O (stereo partly drawn) [Compound 17]	< 1000	–
CC(C)(C)C#Cc1cc(N(C(=O)[C@H]2CC[C@H](C)CC2)[C@H]2CC[C@H](O)CC2)c(C(=O)O)s1 [VX-222 (3003)]	–	Synergy Volume [2]: 32.35 μM^2%; Determination [2]: Synergistic (volumes in the 25-100 range indicate synergistic behavior)

SMILES	EC50 ([1]; Hepatitis C virus, Huh-7, 72 h) [nM]	further results
C[C@H](NP(=O)(OC[C@@]1(F)O[C@@H](n2cnc3c(=O)[nH]c(N)nc32)[C@](C)(O)[C@@H]1O)Oc1ccccc1)C(=O)OC1CCCCC1 (stereo partly drawn) [Compound 11]	< 1000	–
CCOc1nc(N)nc2c1ncn2[C@@H]1O[C@]2(F)COP(=O)(OCC(C)C)O[C@H]2[C@@]1(C)F (stereo partly drawn) [Compound 80]	1000 to 10000	–
C#C[C@]1(O)[C@H](n2cnc3c(OCC)nc(N)nc32)O[C@](F)(CO[P@](=O)(N[C@@H](C)C(=O)OC2CCCCC2)Oc2ccccc2)[C@H]1O [Compound 34]	–	EC50 ([1]; read-out: EC50): < 1000 nM
CCOc1nc(N)nc2c1ncn2[C@@H]1O[C@]2(F)COP(=O)(OC(C)C)O[C@H]2[C@@]1(C)F (stereo partly drawn) [Compound 81]	< 1000	–
CC(C)OC(=O)OCOP(=O)(OCOC(=O)OC(C)C)OC[C@@]1(F)O[C@@H](n2ccc(=O)[nH]c2=O)[C@](C)(F)[C@@H]1O [Compound 61]	–	EC50 [1, 5]: < 1000 nM
CCOc1nc(N)nc2c1ncn2[C@@H]1O[C@](F)(COP(=O)(N[C@@H](C)C(=O)OC2CCCCC2)Oc2ccccc2)[C@@H](O)[C@@]1(C)O (stereo partly drawn) [Compound 16]	< 1000	–
CCOC(=O)[C@H](C)NP(=O)(N[C@@H](C)C(=O)OCC)OC[C@@]1(F)O[C@@H](n2ccc(=O)[nH]c2=O)[C@](C)(O)[C@@H]1O [Compound 67]	1000 to 10000	–
CC(C)OC(=O)[C@H](C)NP(=O)(OC[C@@]1(F)O[C@@H](n2ccc(=O)[nH]c2=O)[C@](C)(Cl)[C@@H]1O)Oc1ccccc1 (stereo partly drawn) [Compound 62]	< 1000	–
Nc1ccn([C@H]2CC[C@@H](CO)O2)c(=O)n1 [ddC]	–	inhibition of mitochondrial protein synthesis [4]: strongly inhibit mitochondrial protein synthesis
CCOc1nc(N)nc2c1ncn2[C@@H]1O[C@](F)(COP(=O)(N[C@@H](C)C(=O)OC2CCCC2)Oc2ccccc2)[C@@H](O)[C@@]1(C)F (stereo partly drawn) [Compound 87]	< 1000	–
C=C=C[C@]1(O)[C@H](n2ccc(=O)[nH]c2=O)O[C@](F)(CO[P@@](=O)(N[C@@H](C)C(=O)OC(C)C)Oc2ccccc2)[C@H]1O [Compound 73]	1000 to 10000	–
COc1ccc2c(O[C@@H]3C[C@H]4C(=O)N[C@]5(C(=O)NS(=O)(=O)C6CC6)C[C@H]5/C=C\CCCCN(C)C(=O)[C@@H]4C3)cc(-c3nc(C(C)C)cs3)nc2c1C [TMC-435 (1013)]	–	Synergy Volume [2]: 97.17 μM^2%; Determination [2]: Synergistic (volumes in the 25-100 range indicate synergistic behavior)
COC(=O)N[C@H](C(=O)N1CCC[C@H]1c1nc(-c2ccc(-c3ccc(-c4c[nH]c([C@@H]5CCCN5C(=O)[C@@H](NC(=O)OC)C(C)C)n4)cc3)cc2)c[nH]1)C(C)C [BMS-790052 (4001)]	–	Synergy Volume [2]: 38.01 μM^2%; Determination [2]: Synergistic (volumes in the 25-100 range indicate synergistic behavior)
CCOc1nc(N)nc2c1ncn2[C@@H]1O[C@](F)(COP(=O)(N[C@@H](C)C(=O)OC(CC)CC)Oc2ccccc2)[C@@H](O)[C@@]1(C)F (stereo partly drawn) [Compound 88]	< 1000	–
COc1nc(N)nc2c1ncn2[C@@H]1O[C@H](COP(=O)(N[C@@H](C)C(=O)OCC(C)(C)C)Oc2cccc3ccccc23)[C@@H](O)[C@@]1(C)O (stereo partly drawn) [INX-08189/BMS-986094]	–	inhibition of mitochondrial protein synthesis [4]: strongly inhibit mitochondrial protein synthesis
C=C[C@]1(O)[C@H](n2ccc(=O)[nH]c2=O)O[C@](F)(COP(=O)(N[C@@H](C)C(=O)OC(C)C)Oc2ccccc2)[C@H]1O (stereo partly drawn) [Compound 77]	1000 to 10000	–
CCOc1nc(N)nc2c1ncn2[C@@H]1O[C@](F)(COP(=O)(N[C@@H](C)C(=O)OCC(C)(C)C)Oc2ccccc2)[C@@H](O)[C@@]1(C)F (stereo partly drawn) [Compound 91]	< 1000	–
CCc1cc(CC[C@]2(C3CCCC3)CC(O)=C(Cc3nc4nc(C)cc(C)n4n3)C(=O)O2)cc(CC)n1 [Filibuvir (3007)]	–	Synergy Volume [2]: 23.51 μM^2%; Determination [2]: Additive (volumes in the −25-25 range indicate additive behavior)
CCOc1nc(N)nc2c1ncn2C1O[C@](F)(COP(=O)(N[C@@H](C)C(=O)OC(C)C)Oc2ccccc2)[C@@H](O)[C@@]1(C)F (stereo partly drawn) [Compound 85]	< 1000	–
CCOc1nc(N)nc2c1ncn2[C@@H]1O[C@](F)(COP(=O)(N[C@@H](C)C(=O)OCC(C)(C)C)Oc2cccc3ccccc23)[C@@H](O)[C@@]1(C)F (stereo partly drawn) [Compound 90]	< 1000	–
CC(N[P@](=O)(OC[C@@]1(F)O[C@@H](n2ccc(=O)[nH]c2=O)[C@](C)(O)[C@@H]1O)Oc1ccccc1)C(=O)OC1CCCCC1 (stereo partly drawn) [Compound 20]	< 1000	–
Nc1ncnc2c1ncn2[C@@H]1O[C@H](COP(=O)(O)OP(=O)(O)OP(=O)(O)O)[C@@H](O)[C@H]1O [ATP]	–	incorporation by HMRP (template for GTP analogs, FIG. 11) [3]: poor substrate for incorporation
CC(C)(C)C(=O)SCCCCOP(=O)(OCCCCSC(=O)C(C)(C)C)OC[C@@]1(F)O[C@@H](n2ccc(=O)[nH]c2=O)[C@](C)(O)[C@@H]1O [Compound 60]	10000 to 100000	–
